Laboratory results reported in US9101638B2, “Boronic acid derivatives and therapeutic uses thereof” (Rempex Pharmaceuticals, Inc., priority 2013, dated 2015).
Where two headings read alike, the source gives them in different places.

Experiments:
ec302 (TEM-10) [1] = assay: Potentiation of tigemonam, strain ec302; assay type: cell-based
PAM1154/KPC-2 = assay: Biapenem potentiation in PAM1154/KPC-2 (MexAB-OprM lacking); assay type: cell-based, Pseudomonas aeruginosa
Method: (§1) Efflux of BLIs from Pseudomonas aeruginosa by the MexAB-OprM efflux pump was also evaluated. […] Due to expression of KPC-2 both strains became resistant to biapenem. […] Potency of BLIs to potentiate biapenem in these strains was determined. […] The ratio of MPC64 values for each BLI in PAM1032/KPC-2 (efflux proficient) and PAM1154/KPC-2 (efflux deficient) was determined to generate the Efflux Index (EI).

ec308 (SHV-5) [2] = assay: Potentiation of tigemonam, strain ec308; assay type: cell-based; conditions: minimum BLI concentration inhibiting growth with 4 μg/mL tigemonam
SHV-12 = SHV-12 (Klebsiella pneumoniae, UniProt P0AD64, E235K/G234S/L31Q); assay: Inhibition of nitrocefin cleavage by purified SHV-12; assay type: biochemical; conditions: nitrocefin reporter substrate, purified enzyme; read-out: Ki (SHV-12, NCF)
Chain of SHV-12 (P0AD64 22-286 L31Q/G234S/E235K): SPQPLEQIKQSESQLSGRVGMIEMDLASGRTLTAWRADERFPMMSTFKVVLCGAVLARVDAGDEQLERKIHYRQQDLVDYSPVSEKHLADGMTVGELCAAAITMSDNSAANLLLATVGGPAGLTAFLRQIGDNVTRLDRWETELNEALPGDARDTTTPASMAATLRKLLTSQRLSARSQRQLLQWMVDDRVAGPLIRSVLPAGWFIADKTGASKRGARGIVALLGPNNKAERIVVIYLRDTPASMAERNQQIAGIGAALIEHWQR
Summary of the method: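 Purified enzyme was preincubated with a range of inhibitor concentrations in reaction buffer for 10 min at room temperature. Nitrocefin was then added and its cleavage followed at 490 nm every 10 sec for 10 min.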

KP1009 (CTX-M-15) [3] = assay: Potentiation of tigemonam, strain KP1009; conditions: minimum BLI concentration inhibiting growth with 4 μg/mL tigemonam
ec308 (SHV-5) [4] = assay: Potentiation of aztreonam, strain ec308; assay type: cell-based; conditions: minimum BLI concentration inhibiting growth with 4 μg/mL aztreonam
CMY-2 = CMY-2 (Klebsiella pneumoniae, UniProt Q48434); assay: Inhibition of nitrocefin cleavage by purified CMY-2; assay type: biochemical; conditions: nitrocefin reporter substrate, purified enzyme; read-out: Ki (CMY-2, NCF)
Chain of CMY-2 (Q48434 21-381, species assumed): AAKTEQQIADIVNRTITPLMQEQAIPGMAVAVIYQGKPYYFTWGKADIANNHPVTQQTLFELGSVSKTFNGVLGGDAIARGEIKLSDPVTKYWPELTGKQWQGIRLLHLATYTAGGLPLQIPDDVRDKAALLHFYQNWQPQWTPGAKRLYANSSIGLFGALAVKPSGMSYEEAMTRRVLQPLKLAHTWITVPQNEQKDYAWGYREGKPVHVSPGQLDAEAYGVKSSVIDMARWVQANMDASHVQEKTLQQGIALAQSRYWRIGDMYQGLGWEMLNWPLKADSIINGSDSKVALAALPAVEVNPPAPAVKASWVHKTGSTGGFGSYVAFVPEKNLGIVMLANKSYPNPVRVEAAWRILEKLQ
Method: (§2) Purified enzymes were mixed with various concentrations of inhibitors in reaction buffer and incubated for 10 min at room temperature. Nitrocefin was added and substrate cleavage profiles were recorded at 490 nm every 10 sec for 10 min.

P99 = P99 (Enterobacter cloacae, UniProt P05364); assay: Inhibition of nitrocefin cleavage by purified P99; assay type: biochemical; conditions: nitrocefin reporter substrate, purified enzyme; read-out: Ki (P99, NCF)
Chain of P99 (P05364 21-381): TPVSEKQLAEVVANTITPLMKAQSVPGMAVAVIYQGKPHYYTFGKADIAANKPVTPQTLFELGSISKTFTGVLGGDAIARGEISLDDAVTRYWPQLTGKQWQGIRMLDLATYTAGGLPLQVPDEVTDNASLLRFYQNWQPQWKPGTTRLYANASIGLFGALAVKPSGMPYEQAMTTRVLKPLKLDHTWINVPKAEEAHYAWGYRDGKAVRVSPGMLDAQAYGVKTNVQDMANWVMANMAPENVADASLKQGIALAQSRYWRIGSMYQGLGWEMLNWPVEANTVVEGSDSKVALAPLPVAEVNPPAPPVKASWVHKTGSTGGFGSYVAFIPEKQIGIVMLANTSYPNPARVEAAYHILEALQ
Method: as §2

CTX-M-14 = CTX-M-14 (Escherichia coli, UniProt Q9L5C7); assay: Inhibition of nitrocefin cleavage by purified CTX-M-14; assay type: biochemical; conditions: nitrocefin reporter substrate, purified enzyme; read-out: Ki (CTX-M-14, NCF)
Chain of CTX-M-14 (Q9L5C7 entry or part of it): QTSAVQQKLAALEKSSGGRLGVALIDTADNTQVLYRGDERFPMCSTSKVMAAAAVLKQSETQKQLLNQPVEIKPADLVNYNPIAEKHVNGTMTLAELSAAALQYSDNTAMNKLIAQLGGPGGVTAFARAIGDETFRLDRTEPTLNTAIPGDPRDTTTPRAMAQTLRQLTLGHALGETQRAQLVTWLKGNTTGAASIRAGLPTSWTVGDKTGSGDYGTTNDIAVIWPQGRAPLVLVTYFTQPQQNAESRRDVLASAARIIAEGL
Method: as §2

EC1010 (CMY-6) [5] = assay type: cell-based
OXA-48 = OXA-48 (Klebsiella pneumoniae, UniProt Q6XEC0); assay: Inhibition of nitrocefin cleavage by purified OXA-48; assay type: biochemical; conditions: nitrocefin reporter substrate, purified enzyme; read-out: Ki (OXA-48, NCF)
Chain of OXA-48 (Q6XEC0 23-265 limits assumed): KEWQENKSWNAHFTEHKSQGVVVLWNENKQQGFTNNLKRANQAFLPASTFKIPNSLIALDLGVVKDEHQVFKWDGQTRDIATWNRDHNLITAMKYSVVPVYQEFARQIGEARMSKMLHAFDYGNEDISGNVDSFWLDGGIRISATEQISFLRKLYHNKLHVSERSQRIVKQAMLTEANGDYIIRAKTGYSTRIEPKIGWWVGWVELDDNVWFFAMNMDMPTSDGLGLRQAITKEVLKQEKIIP
Method: as §2

ECL1002 = assay: Potentiation of aztreonam, strain ECL1002; assay type: cell-based; conditions: minimum BLI concentration inhibiting growth with 4 μg/mL aztreonam
KP1004 (K-2) = assay: Potentiation of aztreonam, strain KP1004; assay type: cell-based; conditions: minimum BLI concentration inhibiting growth with 4 μg/mL aztreonam
KP1005 (CTX-M-14) = assay: Potentiation of aztreonam, strain KP1005; assay type: cell-based
ec302 (TEM-10) [6] = assay: Potentiation of aztreonam, strain ec302; assay type: cell-based
PAM1032/KPC-2 = assay: Biapenem potentiation in PAM1032/KPC-2 (MexAB-OprM overexpressed); assay type: cell-based, Pseudomonas aeruginosa
Method: as §1

EC1010 (CMY-6) [7] = assay: Potentiation of aztreonam, strain EC1010; assay type: cell-based
KP1009 (CTX-M-15) [8] = assay: Potentiation of aztreonam, strain KP1009; assay type: cell-based

Row | SMILES | TIG MPC4 TEM-10 ec302 (ec302 (TEM-10) [1]) | PAM1154/KPC-2 Biapenem MPC64 (PAM1154/KPC-2) | TIG MPC4 SHV-5 ec308 (ec308 (SHV-5) [2]) | Ki (SHV-12) [nM] | TIG MPC4 CTX-M-15 KP1009 (KP1009 (CTX-M-15) [3]) | AZT MPC4 SHV-5 ec308 (ec308 (SHV-5) [4]) | Ki (CMY-2) [nM] | Ki (P99) [nM] | Ki (CTX-M-14) [nM] | TIG MPC4 CMY-6 EC1010 (EC1010 (CMY-6) [5]) | Ki (OXA-48) [nM] | AZT MPC4 ECL1002 (ECL1002) | AZT MPC4 K-2 KP1004 (KP1004 (K-2)) | AZT MPC4 CTX-M-14 KP1005 (KP1005 (CTX-M-14)) | AZT MPC4 TEM-10 ec302 (ec302 (TEM-10) [6]) | PAM1032/KPC-2 Biapenem MPC64 (PAM1032/KPC-2) | AZT MPC4 CMY-6 EC1010 (EC1010 (CMY-6) [7]) | AZT MPC4 CTX-M-15 KP1009 (KP1009 (CTX-M-15) [8]) | PAM1032/KPC-2 Biapenem MPC64 (PAM1032/KPC-2; BLI potency to decrease biapenem MIC 64-fold, 32 to 0.5 μg/ml, efflux proficient strain)
1 | NC(=O)CC(=O)N[C@H]1Cc2cccc(C(=O)O)c2OB1O [Compound 16, (R)-3-(3-amino-3-oxopropanamido)-2-hydroxy-3,4-dihydro-2H-benzo[e][1,2]oxaborinine-8-carboxylic acid] | Y (key: X = MIC of less than 1 μg/mL; Y = MIC of 1 μg/mL to 10 μg/mL; Z = MIC of greater than 10 μg/mL) | X (key: X = Less than 10; Y = 10 to 40; Z Greater than 40) | Y (Y = MIC of 1 μg/mL to 10 μg/mL) | < 1 | X (X = MIC of less than 1 μg/mL) | X (X = MIC of less than 1 μg/mL) | 1 to 10 | 1 to 10 | 1 to 10 | X (key: X = MIC of less than 1 μg/mL; Y = MIC of 1 μg/mL to 10 μg/mL; Z = MIC of greater than 10 μg/mL) | 1 to 10 | X (X = MIC of less than 1 μg/mL) | Y (Y = MIC of 1 μg/mL to 10 μg/mL) | X (key: X = MIC of less than 1 μg/mL; Y = MIC of 1 μg/mL to 10 μg/mL; Z = MIC of greater than 10 μg/mL) | X (key: X = MIC of less than 1 μg/mL; Y = MIC of 1 μg/mL to 10 μg/mL; Z = MIC of greater than 10 μg/mL) | X (key: X = Less than 10; Y = 10 to 40; Z Greater than 40) | – | – | –
2 | NC(=O)C(=O)N[C@H]1Cc2cccc(C(=O)O)c2OB1O [Compound 17, (R)-3-(2-amino-2-oxoacetamido)-2-hydroxy-3,4-dihydro-2H-benzo[e][1,2]oxaborinine-8-carboxylic acid] | X (key: X = MIC of less than 1 μg/mL; Y = MIC of 1 μg/mL to 10 μg/mL; Z = MIC of greater than 10 μg/mL) | X (key: X = Less than 10; Y = 10 to 40; Z Greater than 40) | Y (Y = MIC of 1 μg/mL to 10 μg/mL) | 1 to 10 | Y (Y = MIC of 1 μg/mL to 10 μg/mL) | X (X = MIC of less than 1 μg/mL) | 1 to 10 | 1 to 10 | 1 to 10 | X (key: X = MIC of less than 1 μg/mL; Y = MIC of 1 μg/mL to 10 μg/mL; Z = MIC of greater than 10 μg/mL) | 1 to 10 | Y (Y = MIC of 1 μg/mL to 10 μg/mL) | Y (Y = MIC of 1 μg/mL to 10 μg/mL) | Y (key: X = MIC of less than 1 μg/mL; Y = MIC of 1 μg/mL to 10 μg/mL; Z = MIC of greater than 10 μg/mL) | X (key: X = MIC of less than 1 μg/mL; Y = MIC of 1 μg/mL to 10 μg/mL; Z = MIC of greater than 10 μg/mL) | – | Y (key: X = MIC of less than 1 μg/mL; Y = MIC of 1 μg/mL to 10 μg/mL; Z = MIC of greater than 10 μg/mL) | Y (key: X = MIC of less than 1 μg/mL; Y = MIC of 1 μg/mL to 10 μg/mL; Z = MIC of greater than 10 μg/mL) | Z (Z Greater than 40)
